In patent US10201586B2 (dated 2019):
Each block holds one compound with its values, some of them ahead of it. *1 amine or outer side, *2 acyl side, *3 side chain or, on linkers, in order; H or OH if unused. Where a SMILES comes first, the peptide text is derived from it. Bridges are numbered along the chain shown (N, C = ends). [ ]: non-standard residue; d: D form. The star is where a group is joined. ξ: configuration not given here. Succinimide(1-Et,3-yl) = CCN1C(=O)CC(*)C1=O; Bta = N[C@@H](Cc1csc2ccccc12)C(=O)O; Cysteamide = C(CS[*:3])N[*:1]; Tle = CC(C)(C)[C@H](N)C(=O)O; β3hL = CC(C)C[C@H](N)CC(=O)O; β3hK = NCCCC[C@H](N)CC(=O)O; hCys = N[C@@H](CCS)C(=O)O; Nle = CCCC[C@H](N)C(=O)O; ξβ3hV = CC(C)C(N)CC(=O)O; Aib = CC(C)(N)C(=O)O

Key:
TFPI [1] = molecular target: T1, TFPI (Homo sapiens, UniProt P10646); experiment: IC50 [nm]
Target sequence in this assay (P10646 29-304 limits assumed): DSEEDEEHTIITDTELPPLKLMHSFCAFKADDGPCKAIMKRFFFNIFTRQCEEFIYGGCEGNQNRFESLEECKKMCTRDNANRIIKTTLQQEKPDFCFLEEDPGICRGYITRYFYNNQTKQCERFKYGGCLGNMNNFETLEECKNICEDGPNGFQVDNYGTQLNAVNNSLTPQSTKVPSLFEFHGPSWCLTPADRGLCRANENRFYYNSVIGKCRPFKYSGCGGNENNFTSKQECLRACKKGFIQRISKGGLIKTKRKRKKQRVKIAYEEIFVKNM

[2] = plasma stability in human plasma; format: in vitro ADME; details: for remaining at 24 h: 24 hour incubation in human plasma, quantitative ELISA
TFPI [3] = molecular target: T1, TFPI; experiment: IC50 Mean (nM]
Target sequence in this assay (P10646 29-304 limits assumed): as above

TFPI [4] = molecular target: T1, TFPI; experiment: % Inhibition @ 2.5µM
TFPI [5] = molecular target: T1, TFPI; experiment: Extrinsic Tenase Inhibition assay | % Inhibition @ 2.5µM
[6] = molecular target: Tissue Factor Pathway Inhibitor (TFPI) (Homo sapiens, UniProt P10646); experiment: IC50 ELISA | IC50 [nM]
Chain of Tissue Factor Pathway Inhibitor (TFPI) (P10646 29-304 limits assumed): as above

Compound: CCCC[C@H](NC(=O)CNC(=O)[C@H](CO)NC(=O)[C@H](Cc1ccccc1)NC(=O)[C@H](Cc1c[nH]c2ccccc12)NC(=O)[C@H](CCCCN)NC(C)=O)C(=O)N[C@@H](CCCNC(=N)N)C(=O)N[C@@H](CC(=O)O)C(=O)N[C@@H](CCCC)C(=O)N[C@@H](CCCCN)C(=O)NCC(=O)N[C@H](C(=O)N[C@@H](CCCC)C(=O)N[C@@H](CO)C(=O)N[C@@H](CO)C(=O)N[C@H](C(=O)N[C@@H](Cc1c[nH]c2ccccc12)C(=O)N[C@H](C(=O)N[C@@H](CCCCN)C(=O)N[C@@H](Cc1ccccc1)C(N)=O)C(C)C)C(C)C)[C@@H](C)O [JBT0414 | 1205, Ac-KWFSG-Nle-RD-Nle-KGT-Nle-SSVWVKF-NH2] (Ac-KWFSG[Nle]RD[Nle]KGT[Nle]SSVWVKF-NH2)
IC50 (TFPI [1]): 5690 nM

Compound: CC(=O)N[C@@H](Cc1ccccc1)C(=O)N[C@@H](CCC(N)=O)C(=O)N[C@@H](CO)C(=O)N[C@@H](CCCCN)C(=O)NCC(=O)N[C@@H](CC(N)=O)C(=O)N[C@H](C(=O)N[C@@H](Cc1ccccc1)C(=O)N[C@H](C(=O)N[C@@H](Cc1ccccc1)C(=O)NCC(=O)N[C@@H](Cc1ccc(O)cc1)C(=O)N[C@@H](Cc1ccccc1)C(=O)N[C@@H](CCC(=O)O)C(=O)N[C@@H](CCCNC(=N)N)C(=O)N[C@@H](CC(C)C)C(=O)N[C@@H](CCCNC(=N)N)C(=O)N[C@@H](C)C(=O)N[C@@H](CCCCN)CC(=O)N[C@@H](CC(C)C)C(N)=O)C(C)C)C(C)C [JBT0533 | 424] (Ac-FQSKGNVFVFGYFERLRA[β3hK]L-NH2)
IC50 (TFPI [3]): 756 nM

Compound: CC(=O)N[C@@H](Cc1ccccc1)C(=O)N[C@@H](CCC(N)=O)C(=O)N[C@@H](CO)C(=O)N[C@@H](CCCCN)C(=O)NCC(=O)N[C@@H](CC(N)=O)C(=O)N[C@H](C(=O)N[C@@H](Cc1ccccc1)C(=O)NC(CC(=O)N[C@@H](Cc1ccccc1)C(=O)NCC(=O)N[C@@H](Cc1ccc(O)cc1)C(=O)N[C@@H](Cc1ccccc1)C(=O)N[C@@H](CCC(=O)O)C(=O)N[C@@H](CCCNC(=N)N)C(=O)N[C@@H](CC(C)C)C(=O)N[C@@H](CCCNC(=N)N)C(=O)N[C@@H](C)C(=O)N[C@@H](CCCCN)C(=O)N[C@@H](CC(C)C)C(N)=O)C(C)C)C(C)C (stereo partly drawn) [JBT0523 | 757] (Ac-FQSKGNVF[ξβ3hV]FGYFERLRAKL-NH2)
IC50 (TFPI [3]): > 5000 nM

Compound: CC(=O)N[C@@H](Cc1ccccc1)C(=O)N[C@@H](CCC(N)=O)C(=O)N[C@@H](CO)C(=O)N[C@@H](CCCCN)C(=O)NCC(=O)N[C@@H](CC(N)=O)C(=O)N[C@H](C(=O)N[C@@H](Cc1ccccc1)C(=O)N[C@H](C(=O)N[C@@H](Cc1ccccc1)C(=O)NCC(=O)N[C@@H](Cc1ccc(O)cc1)C(=O)N[C@@H](Cc1ccccc1)C(=O)N[C@@H](CCC(=O)O)C(=O)N[C@@H](CCCNC(=N)N)C(=O)N[C@@H](CC(C)C)C(=O)N[C@@H](CCCNC(=N)N)C(=O)N[C@@H](C)C(=O)N[C@@H](CCCCN)C(=O)N[C@H](CC(N)=O)CC(C)C)C(C)C)C(C)C [JBT0534 | 204] (Ac-FQSKGNVFVFGYFERLRAK[β3hL]-NH2)
IC50 (TFPI [3]): 84 nM

Compound: CCN1C(=O)CC(SC[C@H](NC(=O)[C@H]2CCCN2C(=O)[C@H](CCCCN)NC(=O)[C@H](CO)NC(=O)[C@H](CCC(N)=O)NC(=O)[C@H](Cc2ccccc2)NC(C)=O)C(=O)N[C@H](C(=O)N[C@@H](Cc2c[nH]cn2)C(=O)N[C@H](C(=O)N[C@@H](CC(=O)O)C(=O)N[C@H](C)C(=O)N[C@@H](Cc2ccc(O)cc2)C(=O)N[C@@H](Cc2csc3ccccc23)C(=O)N[C@@H](CCC(=O)O)C(=O)N[C@@H](CCCNC(=N)N)C(=O)N[C@@H](CC(C)C)C(=O)NC(C)(C)C(=O)N[C@@H](C)C(=O)N[C@@H](CCCCN)C(=O)N[C@@H](CC(C)C)C(N)=O)C(C)(C)C)C(C)C)C1=O (stereo partly shown) [JBT2502 | 4217, Ac-FQSKp-C(NEM)-VH-Tle-DaY-Bta-ERL-Aib-AKL-NH2] (Ac-FQSK[dP]C(Succinimide(1-Et,3-yl))VH[Tle]D[dA]Y[Bta]ERL[Aib]AKL-NH2)
IC50 [6]: 4.1 nM

Compound: CC(=O)N[C@@H](Cc1ccccc1)C(=O)N[C@@H](CCC(N)=O)C(=O)N[C@@H](CO)C(=O)N[C@@H](CCCCN)C(=O)N1CCC[C@@H]1C(=O)N[C@@H](CC(N)=O)C(=O)N[C@H](C(=O)N[C@@H](Cc1c[nH]cn1)C(=O)N[C@H](C(=O)N1CCC[C@H]1C(=O)N[C@@H]1CSSCC[C@@H](C(=O)N[C@@H](CCCNC(=N)N)C(=O)N[C@@H](CC(C)C)C(=O)NC(C)(C)C(=O)N[C@@H](C)C(=O)N[C@@H](CCCCN)C(=O)N[C@@H](CC(C)C)C(N)=O)NC(=O)[C@H](Cc2csc3ccccc23)NC(=O)[C@H](Cc2ccc(O)cc2)NC1=O)C(C)C)C(C)C [JBT2518 | 4233, Ac-FQSKpNVHVPcY-Bta--Hcy-RL-Aib-AKL-NH2] (Ac-FQSK[dP]NVHVP[dC]Y[Bta][hCys]RL[Aib]AKL-NH2; disulfide 11-14)
IC50 [6]: 10.8 nM

Compound: CCCC[C@H](NC(=O)CNC(=O)[C@H](CO)NC(=O)[C@H](Cc1ccccc1)NC(=O)[C@H](Cc1c[nH]c2ccccc12)NC(=O)[C@H](CCCCN)NC(=O)[C@H](Cc1ccc(O)cc1)NC(=O)[C@H](CCCNC(=N)N)NC(=O)[C@H](CO)NC(C)=O)C(=O)N[C@@H](CCCNC(=N)N)C(=O)N[C@@H](CC(=O)O)C(=O)N[C@@H](CCCC)C(=O)N[C@@H](CCCCN)C(=O)NCC(=O)N[C@H](C(=O)N[C@@H](CCCC)C(=O)N[C@@H](CO)C(=O)N[C@@H](CO)C(=O)N[C@H](C(=O)N[C@@H](Cc1c[nH]c2ccccc12)C(=O)N[C@H](C(=O)N[C@@H](CCCCN)C(=O)N[C@@H](Cc1ccccc1)C(N)=O)C(C)C)C(C)C)[C@@H](C)O [JBT0418 | 1210, Ac-SRYKWF SG-Nle-RD-Nle-KGT-Nle-SS VWVKF-NH2] (Ac-SRYKWFSG[Nle]RD[Nle]KGT[Nle]SSVWVKF-NH2)
IC50 (TFPI [1]): 43900 nM

Compound: CC(=O)N[C@@H](Cc1ccccc1)C(=O)N[C@@H](CCC(N)=O)C(=O)N[C@@H](CO)C(=O)N[C@@H](CCCCN)C(=O)NCC(=O)N[C@@H](CC(N)=O)C(=O)NC(CC(=O)N[C@@H](Cc1ccccc1)C(=O)N[C@H](C(=O)N[C@@H](Cc1ccccc1)C(=O)NCC(=O)N[C@@H](Cc1ccc(O)cc1)C(=O)N[C@@H](Cc1ccccc1)C(=O)N[C@@H](CCC(=O)O)C(=O)N[C@@H](CCCNC(=N)N)C(=O)N[C@@H](CC(C)C)C(=O)N[C@@H](CCCNC(=N)N)C(=O)N[C@@H](C)C(=O)N[C@@H](CCCCN)C(=O)N[C@@H](CC(C)C)C(N)=O)C(C)C)C(C)C (stereo partly drawn) [JBT0521 | 756] (Ac-FQSKGN[ξβ3hV]FVFGYFERLRAKL-NH2)
IC50 (TFPI [3]): > 5000 nM

Compound: CC(=O)N[C@@H](Cc1ccccc1)C(=O)N[C@@H](CCC(N)=O)C(=O)N[C@@H](CO)C(=O)N[C@@H](CCCCN)C(=O)N1CCC[C@@H]1C(=O)N[C@@H](CC(N)=O)C(=O)N[C@H](C(=O)N[C@@H](Cc1c[nH]cn1)C(=O)N[C@H](C(=O)N1CCC[C@H]1C(=O)N[C@H](C)C(=O)N[C@@H](Cc1ccc(O)cc1)C(=O)N[C@@H](Cc1csc2ccccc12)C(=O)N[C@@H](CCC(=O)O)C(=O)N[C@@H](CCCNC(=N)N)C(=O)N[C@@H](CC(C)C)C(=O)NC(C)(C)C(=O)N[C@@H]1CSSCCNC(=O)[C@H](CC(C)C)NC(=O)[C@H](CCCCN)NC1=O)C(C)C)C(C)C [JBT2517 | 4232, Ac-FQSKpNVHVPaY-Bta-ERL-Aib-cKL-Cea-] (Ac-FQSK[dP]NVHVP[dA]Y[Bta]ERL[Aib][dC]KL-Cysteamide; disulfide 18-C)
IC50 [6]: 269 nM

The remaining lines, values ahead:

remaining at 24 h [2]: 82%
Compound: CC(=O)N[C@@H](Cc1ccccc1)C(=O)N[C@@H](CCC(N)=O)C(=O)N[C@@H](CO)C(=O)N[C@@H](CCCCN)C(=O)N1CCC[C@@H]1C(=O)N[C@@H](CC(N)=O)C(=O)N[C@H](C(=O)N[C@@H](Cc1cnc[nH]1)C(=O)N[C@H](C(=O)N[C@@H](CC(=O)O)C(=O)NCC(=O)N[C@@H](Cc1ccc(O)cc1)C(=O)N[C@@H](Cc1ccccc1)C(=O)N[C@@H](CCC(=O)O)C(=O)N[C@@H](CCCNC(=N)N)C(=O)N[C@@H](CC(C)C)C(=O)NC(C)(C)C(=O)N[C@@H](C)C(=O)N[C@@H](CCCCN)C(=O)N[C@@H](CC(C)C)C(N)=O)C(C)(C)C)C(C)C [JBT2431] (Ac-FQSK[dP]NVH[Tle]DGYFERL[Aib]AKL-NH2)

% Inhibition @ […] (TFPI [4]): 10%
Extrinsic Tenase Inhibition assay | % Inhibition @ […] (TFPI [5]): 5%
Compound: Ac-SGYASFPLAVQLHVAKRSKEMALARLYYKTS-NH2 (SEQ ID NO: 2008) [JBT0674]

% Inhibition @ […] (TFPI [4]): 3%
Extrinsic Tenase Inhibition assay | % Inhibition @ […] (TFPI [5]): 1%
Compound: Ac-SGYASFPLAVQLHVSKRSKEMALARLAYKTS-NH2 (SEQ ID NO: 2140) [JBT0686]

% Inhibition @ […] (TFPI [4]): 0%
Extrinsic Tenase Inhibition assay | % Inhibition @ […] (TFPI [5]): 7%
Compound: Ac-SGYASFPLAVQLHVSARSKEMALARLYYKTS-NH2 (SEQ ID NO: 2136) [JBT0675]

% Inhibition @ […] (TFPI [4]): 0%
Extrinsic Tenase Inhibition assay | % Inhibition @ […] (TFPI [5]): 1%
Compound: Ac-SGYASFPLAVQLHVSKASKEMALARLYYKTS-NH2 (SEQ ID NO: 2137) [JBT0676]

Plasma Stability (half life in minutes) human ([2]; human plasma): >2 h
Compound: CC(=O)N[C@@H](Cc1ccccc1)C(=O)N[C@@H](CCC(N)=O)C(=O)N[C@@H](CO)C(=O)N[C@@H](CCCCN)C(=O)N(C)CC(=O)N[C@@H](CC(N)=O)C(=O)N[C@H](C(=O)N[C@@H](Cc1ccccc1)C(=O)N[C@H](C(=O)N[C@@H](CC(=O)O)C(=O)NCC(=O)N[C@@H](Cc1ccc(O)cc1)C(=O)N[C@@H](Cc1ccccc1)C(=O)N[C@@H](CCC(=O)O)C(=O)N[C@@H](CCCNC(=N)N)C(=O)N[C@@H](CC(C)C)C(=O)NC(C)(C)C(=O)N[C@@H](C)C(=O)N[C@@H](CCCCN)C(=O)N[C@@H](CC(C)C)C(N)=O)C(C)C)C(C)C [JBT1584]

remaining at 24 h [2]: 76%
Compound: CC(=O)N[C@@H](Cc1ccccc1)C(=O)N[C@@H](CCC(N)=O)C(=O)N[C@@H](CO)C(=O)N[C@@H](CCCCN)C(=O)N1CCC[C@@H]1C(=O)N[C@@H](CC(N)=O)C(=O)N[C@H](C(=O)N[C@@H](Cc1cnc[nH]1)C(=O)N[C@H](C(=O)N1CCC[C@H]1C(=O)NCC(=O)N[C@@H](Cc1ccc(O)cc1)C(=O)N[C@@H](Cc1ccccc1)C(=O)N[C@@H](CCC(=O)O)C(=O)N[C@@H](CCCNC(=N)N)C(=O)N[C@@H](CC(C)C)C(=O)NC(C)(C)C(=O)N[C@@H](C)C(=O)N[C@@H](CCCCN)C(=O)N[C@@H](CC(C)C)C(N)=O)C(C)C)C(C)C [JBT2432]

% Inhibition @ […] (TFPI [4]): 4%
Extrinsic Tenase Inhibition assay | % Inhibition @ […] (TFPI [5]): 2%
Compound: Ac-SGYASFPLAVQLHVSKRAKEMALARLYYKTS-NH2 (SEQ ID NO: 2009) [JBT0677]
